Source: ChEMBL document CHEMBL1135036, “Synthesis and antibacterial evaluation of novel 2-[N-Imidoylpyrrolidinyl] carbapenems” (Bioorg Med Chem Lett, 2002)
Converted amounts (≈) assume the structure as drawn.

Columns and labels:
[1] = Tested for urinary recovery in mice after subcutaneous administration of 20 mg/Kg; assay type: ADME, organism-based; conditions: mouse, urine, sc, read-out: Recovery
[2] = molecular target: T1, Dipeptidase 1 (Sus scrofa) (UniProt P22412); assay: Tested for stability of compound to swine renal DHP-1 relative to imipenem (IMP); assay type: functional
T1 sequence (whole entry): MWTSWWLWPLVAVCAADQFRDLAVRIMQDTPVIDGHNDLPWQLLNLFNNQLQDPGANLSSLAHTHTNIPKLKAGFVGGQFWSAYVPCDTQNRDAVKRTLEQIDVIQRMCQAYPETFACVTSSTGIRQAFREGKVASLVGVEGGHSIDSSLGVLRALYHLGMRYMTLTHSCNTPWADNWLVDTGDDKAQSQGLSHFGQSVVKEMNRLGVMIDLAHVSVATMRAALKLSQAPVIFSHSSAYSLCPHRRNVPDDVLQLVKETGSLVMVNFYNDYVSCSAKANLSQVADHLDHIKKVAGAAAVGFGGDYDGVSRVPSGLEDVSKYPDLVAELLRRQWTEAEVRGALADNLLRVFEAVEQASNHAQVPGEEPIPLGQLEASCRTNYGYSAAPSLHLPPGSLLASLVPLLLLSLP

Escherichia coli = assay: In vitro antibacterial activity against Escherichia coli NIHJ JC-2.; assay type: functional
Proteus vulgaris = assay: In vitro antibacterial activity against Proteus vulgaris IAM 1025.; assay type: functional
Pseudomonas aeruginosa [3] = assay: Tested in vitro for antibacterial activity against Ps. aeruginosa 26; assay type: functional
Staphylococcus aureus [4] = assay: In vitro antibacterial activity against Staphylococcus aureus 209P JC-1.; assay type: functional
Staphylococcus aureus [5] = assay: In vitro antibacterial activity against Staphylococcus aureus 3004 Methicillin-resistant Staphylococcus aureus.; assay type: functional
[6] = molecular target: T2, Dipeptidase 1 (Homo sapiens) (UniProt P16444); assay: Compound stability against human renal DHP-1 relative to imipenem (IMP); assay type: functional
T2 sequence (whole entry): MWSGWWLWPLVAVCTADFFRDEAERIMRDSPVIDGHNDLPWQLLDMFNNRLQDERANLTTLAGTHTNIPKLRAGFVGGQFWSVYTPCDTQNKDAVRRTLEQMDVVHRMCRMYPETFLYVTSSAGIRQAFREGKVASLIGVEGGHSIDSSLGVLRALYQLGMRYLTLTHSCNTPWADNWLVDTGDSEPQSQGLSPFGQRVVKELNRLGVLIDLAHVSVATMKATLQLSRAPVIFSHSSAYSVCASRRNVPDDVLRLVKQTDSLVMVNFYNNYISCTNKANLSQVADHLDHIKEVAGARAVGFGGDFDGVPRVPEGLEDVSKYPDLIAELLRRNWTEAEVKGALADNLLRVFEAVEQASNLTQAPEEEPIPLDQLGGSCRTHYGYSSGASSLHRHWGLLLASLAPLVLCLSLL

Pseudomonas aeruginosa [7] = assay: In vitro antibacterial activity against Ps. auruginosa 26.; assay type: functional
[8] = molecular target: T2, Dipeptidase 1 (Homo sapiens); assay: Tested for stability of compound to human renal DHP-1 relative to imipenem (IMP); assay type: functional

Row | Compound | dose excreted [1] [%] | Stability [2] [%] | MIC (Escherichia coli) [µg/mL] | MIC (Proteus vulgaris) [µg/mL] | MIC (Pseudomonas aeruginosa [3]) [µg/mL] | MIC (Staphylococcus aureus [4]) [µg/mL] | MIC (Staphylococcus aureus [5]) [µg/mL] | Stability [6] [%] | MIC (Pseudomonas aeruginosa [7]) [µg/mL] | Stability [8] [%]
1 | C[C@@H](O)[C@H]1C(=O)N2C(C(=O)O)=C(C3CCNCC3)C[C@H]12 | 43 | 18 | 1.56 (≈ 5.56 µM) | 12.5 (≈ 44.6 µM) | 0.78 (≈ 2.78 µM) | 0.05 (≈ 0.178 µM) | > 100 |  |  | 
2 | C[C@@H](O)[C@H]1C(=O)N2C(C(=O)O)=C(SCCN=CN)C[C@H]12 [IMIPENEM ANHYDROUS] | 29 |  |  |  |  |  |  |  |  | 
3 | C[C@@H](O)[C@H]1C(=O)N2C(C(=O)O)=C([C@@H]3CCN(C4=NCCC4)C3)C[C@H]12 | 50 | 8.4 | 0.2 (≈ 0.6 µM) | 1.56 (≈ 4.68 µM) |  | < 0.025 | 12.5 (≈ 37.5 µM) | 28 | 0.39 (≈ 1.17 µM) | 
4 | CC(=N)N1CC[C@H](SC2=C(C(=O)O)N3C(=O)[C@H]([C@@H](C)O)[C@H]3C2)C1 [PANIPENEM] | 25 |  | 0.2 (≈ 0.589 µM) | 1.56 (≈ 4.6 µM) |  | 0.025 (≈ 0.0737 µM) | 50 (≈ 147 µM) |  | 0.39 (≈ 1.15 µM) | 
5 | C[C@@H](O)[C@H]1C(=O)N2C(C(=O)O)=C([C@@H]3CCN(C(=N)CC(N)=O)C3)C[C@H]12 | 43 | 13 | 0.39 (≈ 1.11 µM) | 1.56 (≈ 4.45 µM) |  | < 0.025 | 6.25 (≈ 17.8 µM) | 14 | 0.39 (≈ 1.11 µM) | 
6 | C[C@@H](O)[C@H]1C(=O)N2C(C(=O)O)=C([C@@H]3CCN(C=N)C3)C[C@H]12 | 41 | 15 | 0.1 (≈ 0.341 µM) | 1.56 (≈ 5.32 µM) |  | < 0.025 | 25 (≈ 85.2 µM) | 39 | 0.2 (≈ 0.682 µM) | 
7 | C/C(=C\[C@@]1(C)CCCN1)C1=C(C(=O)O)N2C(=O)[C@H]([C@@H](C)O)[C@H]2C1 | 61 | 4.3 | 0.39 (≈ 1.22 µM) | 1.56 (≈ 4.87 µM) |  | < 0.025 | 50 (≈ 156 µM) | 45 | 3.13 (≈ 9.77 µM) | 
8 | C[C@@H](O)[C@H]1C(=O)N2C(C(=O)O)=C([C@@H]3CCN(C(=N)COC(N)=O)C3)C[C@H]12 | 42 |  | 0.1 (≈ 0.273 µM) | 1.56 (≈ 4.26 µM) |  | < 0.025 | 6.25 (≈ 17.1 µM) | 13 | 0.78 (≈ 2.13 µM) | 
9 | C/N=C/N1CC[C@@H](C2=C(C(=O)O)N3C(=O)[C@H]([C@@H](C)O)[C@H]3C2)C1 | 48 | 7.8 | 0.2 (≈ 0.651 µM) | 0.78 (≈ 2.54 µM) |  | < 0.025 | 3.13 (≈ 10.2 µM) | 91 | 0.39 (≈ 1.27 µM) | 
10 | C[C@@H](O)[C@H]1C(=O)N2C(C(=O)O)=C(C3CNC3)C[C@H]12 | 45 | 2 | 1.56 (≈ 6.18 µM) | 3.13 (≈ 12.4 µM) |  | 0.05 (≈ 0.198 µM) | 100 (≈ 396 µM) |  | 1.56 (≈ 6.18 µM) | 
11 | CC(=N)N1CC[C@@H](C2=C(C(=O)O)N3C(=O)[C@H]([C@@H](C)O)[C@H]3C2)C1 | 44 | 8.4 | 0.2 (≈ 0.651 µM) | 1.56 (≈ 5.08 µM) |  | < 0.025 | 6.25 (≈ 20.3 µM) | 34 | 0.78 (≈ 2.54 µM) | 
12 | C[C@@H](O)[C@H]1C(=O)N2C(C(=O)O)=C([C@H]3CCNC3)C[C@H]12 | 46 | 16 | 0.39 (≈ 1.46 µM) | 6.25 (≈ 23.5 µM) |  | < 0.025 | 100 (≈ 376 µM) | 78 | 0.78 (≈ 2.93 µM) | 
13 | C[C@@H](O)[C@H]1C(=O)N2C(C(=O)O)=C([C@@H]3CCNC3)C[C@H]12 | 37 | 8.8 | 0.2 (≈ 0.751 µM) | 6.25 (≈ 23.5 µM) |  | < 0.025 | 50 (≈ 188 µM) | 48 | 0.39 (≈ 1.46 µM) | 
14 | C[C@@H](O)[C@H]1C(=O)N2C(C(=O)O)=C(C3CCNC3)C[C@H]12 (stereo partly drawn) | 42 | 13 | 0.39 (≈ 1.46 µM) | 12.5 (≈ 46.9 µM) |  | < 0.025 | 100 (≈ 376 µM) | 58 | 0.78 (≈ 2.93 µM) | 
15 | C[C@@H](O)[C@H]1C(=O)N2C(C(=O)O)=C([C@@H]3CCN(C(=N)CNC(N)=O)C3)C[C@H]12 | 47 |  | 0.2 (≈ 0.547 µM) | 3.13 (≈ 8.57 µM) |  | < 0.025 | 25 (≈ 68.4 µM) | 20 | 0.39 (≈ 1.07 µM) | 
16 | C[C@@H](O)[C@H]1C(=O)N2C(C(=O)O)=C(C3CCCNC3)C[C@H]12 (stereo partly drawn) | 59 |  | 0.39 (≈ 1.39 µM) | 25 (≈ 89.2 µM) |  | < 0.025 | 50 (≈ 178 µM) |  | 1.56 (≈ 5.56 µM) | 4.4
17 | C[C@@H](O)[C@H]1C(=O)N2C(C(=O)O)=C([C@@H]3CCN(C(=N)CO)C3)C[C@H]12 | 52 | 13 | 0.39 (≈ 1.21 µM) | 3.13 (≈ 9.68 µM) |  | < 0.025 | 25 (≈ 77.3 µM) |  | 0.78 (≈ 2.41 µM) | 
18 | C[C@@H](O)[C@H]1C(=O)N2C(C(=O)O)=C(SCCNC=N)C[C@H]12 [IMIPENEM ANHYDROUS] |  | 100 | 0.78 (≈ 2.61 µM) | 3.1 (≈ 10.4 µM) |  | < 0.025 | 100 (≈ 334 µM) | 100 | 0.78 (≈ 2.61 µM) | 
